Measured values reported in ChEMBL document CHEMBL3885881, “DrugMatrix”.

Organism: Rattus norvegicus
Experiment: DrugMatrix - Regimen: Daily Repeat
Type: toxicity, organism-based, Sprague-Dawley
Set-up: regimen Daily Repeat, gender Male, age 6-8 weeks
Conditions: in vivo, po, 0 mg/kg, route oral GAVAGE, dose level Control, vehicle .5 % CMC; for BASOPHIL / EOSINOPHIL / ERYTHROCYTE COUNT / HEMATOCRIT / HEMOGLOBIN / LEUKOCYTE COUNT / LYMPHOCYTE / MEAN CORPUSCULAR HEMOGLOBIN / MEAN CORPUSCULAR HEMOGLOBIN CONCENTRATION / MEAN CORPUSCULAR VOLUME / MONOCYTE / NEUTROPHIL / PLATELET COUNT: tissue Blood; for ALANINE AMINOTRANSFERASE / ALBUMIN / ALKALINE PHOSPHATASE / ASPARTATE AMINOTRANSFERASE / BLOOD UREA NITROGEN / CARBON DIOXIDE / CHLORIDE / CHOLESTEROL / CREATINE PHOSPHOKINASE / CREATININE / GLUCOSE / LACTATE DEHYDROGENASE / LIPASE / PHOSPHORUS / POTASSIUM / SODIUM / TOTAL BILIRUBIN / TOTAL PROTEIN / URIC ACID: tissue Plasma

O=[N+]([O-])c1ccccc1 [NITROBENZENE]
BASOPHIL (72 h, time 3 day): 0.62% | EOSINOPHIL (72 h, time 3 day): 0.52% | ERYTHROCYTE COUNT (72 h, time 3 day): 6.33 x10E6/uL | HEMATOCRIT (72 h, time 3 day): 41.88% | HEMOGLOBIN (72 h, time 3 day): 13.52 G/DL | LEUKOCYTE COUNT (72 h, time 3 day): 11.39 x10E3/uL | LYMPHOCYTE (72 h, time 3 day): 86.18% | MEAN CORPUSCULAR HEMOGLOBIN (72 h, time 3 day): 21.35 pg | MEAN CORPUSCULAR HEMOGLOBIN CONCENTRATION (72 h, time 3 day): 32.23 G/DL | MEAN CORPUSCULAR VOLUME (72 h, time 3 day): 66.25 fL | MONOCYTE (72 h, time 3 day): 1.93% | NEUTROPHIL (72 h, time 3 day): 9.1% | PLATELET COUNT (72 h, time 3 day): 1204.5 x10E3/uL | ALANINE AMINOTRANSFERASE (72 h, time 3 day): 43 u/L | ALBUMIN (72 h, time 3 day): 4.08 G/DL | ALKALINE PHOSPHATASE (72 h, time 3 day): 426.33 u/L | ASPARTATE AMINOTRANSFERASE (72 h, time 3 day): 72.5 u/L | BLOOD UREA NITROGEN (72 h, time 3 day): 16.67 mg/dL | CARBON DIOXIDE (72 h, time 3 day): 28.33 mmol/L | CHLORIDE (72 h, time 3 day): 103.5 MEQ/L | CHOLESTEROL (72 h, time 3 day): 78.83 mg/dL | CREATINE PHOSPHOKINASE (72 h, time 3 day): 325.67 u/L | CREATININE (72 h, time 3 day): 0.48 mg/dL | GLUCOSE (72 h, time 3 day): 171.67 mg/dL | LACTATE DEHYDROGENASE (72 h, time 3 day): 107.33 u/L | LIPASE (72 h, time 3 day): 11.83 u/L | PHOSPHORUS (72 h, time 3 day): 12.55 mg/dL | POTASSIUM (72 h, time 3 day): 6.57 MEQ/L | SODIUM (72 h, time 3 day): 145.67 MEQ/L | TOTAL BILIRUBIN (72 h, time 3 day): 0.42 mg/dL | TOTAL PROTEIN (72 h, time 3 day): 6.1 G/DL | URIC ACID (72 h, time 3 day): 1.57 mg/dL | BASOPHIL (120 h, time 5 day): 0.48% | EOSINOPHIL (120 h, time 5 day): 0.67% | ERYTHROCYTE COUNT (120 h, time 5 day): 6.69 x10E6/uL | HEMATOCRIT (120 h, time 5 day): 44.17% | HEMOGLOBIN (120 h, time 5 day): 13.78 G/DL | LEUKOCYTE COUNT (120 h, time 5 day): 7.86 x10E3/uL | LYMPHOCYTE (120 h, time 5 day): 85.9% | MEAN CORPUSCULAR HEMOGLOBIN (120 h, time 5 day): 20.6 pg | MEAN CORPUSCULAR HEMOGLOBIN CONCENTRATION (120 h, time 5 day): 31.25 G/DL | MEAN CORPUSCULAR VOLUME (120 h, time 5 day): 65.9 fL | MONOCYTE (120 h, time 5 day): 3.27% | NEUTROPHIL (120 h, time 5 day): 8.67% | PLATELET COUNT (120 h, time 5 day): 1182.33 x10E3/uL | ALANINE AMINOTRANSFERASE (120 h, time 5 day): 37.5 u/L | ALBUMIN (120 h, time 5 day): 4 G/DL | ALKALINE PHOSPHATASE (120 h, time 5 day): 348.17 u/L | ASPARTATE AMINOTRANSFERASE (120 h, time 5 day): 71.67 u/L | BLOOD UREA NITROGEN (120 h, time 5 day): 13 mg/dL | CARBON DIOXIDE (120 h, time 5 day): 27 mmol/L | CHLORIDE (120 h, time 5 day): 104.67 MEQ/L | CHOLESTEROL (120 h, time 5 day): 73.33 mg/dL | CREATINE PHOSPHOKINASE (120 h, time 5 day): 211.33 u/L | CREATININE (120 h, time 5 day): 0.23 mg/dL | GLUCOSE (120 h, time 5 day): 155 mg/dL | LACTATE DEHYDROGENASE (120 h, time 5 day): 133.83 u/L | LIPASE (120 h, time 5 day): 11.17 u/L | PHOSPHORUS (120 h, time 5 day): 14.53 mg/dL | POTASSIUM (120 h, time 5 day): 6.65 MEQ/L | SODIUM (120 h, time 5 day): 148.17 MEQ/L | TOTAL BILIRUBIN (120 h, time 5 day): 0.28 mg/dL | TOTAL PROTEIN (120 h, time 5 day): 6.22 G/DL | URIC ACID (120 h, time 5 day): 1.57 mg/dL | BASOPHIL ([…], time 14 day): 0.97% | EOSINOPHIL ([…], time 14 day): 0.8% | ERYTHROCYTE COUNT ([…], time 14 day): 7.02 x10E6/uL | HEMATOCRIT ([…], time 14 day): 44.43% | HEMOGLOBIN ([…], time 14 day): 14.58 G/DL | LEUKOCYTE COUNT ([…], time 14 day): 16.49 x10E3/uL | LYMPHOCYTE ([…], time 14 day): 79.03% | MEAN CORPUSCULAR HEMOGLOBIN ([…], time 14 day): 20.85 pg | MEAN CORPUSCULAR HEMOGLOBIN CONCENTRATION ([…], time 14 day): 32.78 G/DL | MEAN CORPUSCULAR VOLUME ([…], time 14 day): 63.57 fL | MONOCYTE ([…], time 14 day): 1.9% | NEUTROPHIL ([…], time 14 day): 15.18% | PLATELET COUNT ([…], time 14 day): 1184.33 x10E3/uL | ALANINE AMINOTRANSFERASE ([…], time 14 day): 43 u/L | ALBUMIN ([…], time 14 day): 4.25 G/DL | ALKALINE PHOSPHATASE ([…], time 14 day): 409.67 u/L | ASPARTATE AMINOTRANSFERASE ([…], time 14 day): 84.17 u/L | BLOOD UREA NITROGEN ([…], time 14 day): 16 mg/dL | CARBON DIOXIDE ([…], time 14 day): 35.17 mmol/L | CHLORIDE ([…], time 14 day): 99.83 MEQ/L | CHOLESTEROL ([…], time 14 day): 68.67 mg/dL | CREATINE PHOSPHOKINASE ([…], time 14 day): 384.17 u/L | CREATININE ([…], time 14 day): 0.43 mg/dL | GLUCOSE ([…], time 14 day): 160 mg/dL | LACTATE DEHYDROGENASE ([…], time 14 day): 115.33 u/L | LIPASE ([…], time 14 day): 17.33 u/L | PHOSPHORUS ([…], time 14 day): 10.68 mg/dL | POTASSIUM ([…], time 14 day): 6.48 MEQ/L | SODIUM ([…], time 14 day): 148.17 MEQ/L | TOTAL BILIRUBIN ([…], time 14 day): 0.45 mg/dL | TOTAL PROTEIN ([…], time 14 day): 6.57 G/DL | URIC ACID ([…], time 14 day): 1.78 mg/dL
